# Tested on: ES cells
# Experiment: DNA microarray analysis of ES cells
# Format: cell-based, mouse
# Conditions: ES cells, 24 hours
# Procedure: The DNA microarray analysis was used to determine whether the gene expression profiles in various pathways in cells will be affected when the cells were cultured by a BP-containing medium.
# An experimental group medium (BP10 or BP 40), a LIF-containing medium (without BP), and a control group medium (without BP) were used respectively in a 6-well culture dish to culture ES cells with an initial density of 1×10^4 per well for 24 hours. Next, performing total RNA extraction and the obtained RNA was labeled with Cy3. Samples were hybridized to Agilent Mouse G3 Whole Genome Oligo 86×60K microarrays (Agilent) according to the manufacturer's instructions. Arrays were scanned with a Microarray Scanner System and data was analyzed by using a GeneSpring GX software (Agilent).
# According to the related research at present, the Jak-Stat signaling pathway is the most relevant in terms of stem cell self-renewal and pluripotency maintenance.
# [1] = BP10 medium (about 10 μg BP/ml)
smiles,measurement,setting,value
"CCCC=C1OC(=O)c2ccccc21 [BP, n-butylidenephthalide]",Amino acid metabolism: % of genes regulated,[1],4.3%
same,"Amino acid metabolism: D, number of down-regulated genes",[1],1
same,"Amino acid metabolism: I, number of up-regulated genes",[1],0
same,Amino acid metabolism: No. (regulated genes/genes of function),[1],1/23
same,Apoptosis: % of genes regulated,[1],11.7%
same,"Apoptosis: D, number of down-regulated genes",[1],8
same,"Apoptosis: I, number of up-regulated genes",[1],3
same,Apoptosis: No. (regulated genes/genes of function),[1],11/94
same,Calcium signaling pathway: % of genes regulated,[1],21.9%
same,"Calcium signaling pathway: D, number of down-regulated genes",[1],28
same,"Calcium signaling pathway: I, number of up-regulated genes",[1],4
same,Calcium signaling pathway: No. (regulated genes/genes of pathway),[1],32/146
same,Cell adhesion molecules: % of genes regulated,[1],22%
same,"Cell adhesion molecules: D, number of down-regulated genes",[1],20
same,"Cell adhesion molecules: I, number of up-regulated genes",[1],13
same,Cell adhesion molecules: No. (regulated genes/genes of function),[1],33/150
same,Cell communication: % of genes regulated,[1],21.7%
same,"Cell communication: D, number of down-regulated genes",[1],17
same,"Cell communication: I, number of up-regulated genes",[1],3
same,Cell communication: No. (regulated genes/genes of function),[1],20/92
same,Cell cycle: % of genes regulated,[1],2.5%
same,"Cell cycle: D, number of down-regulated genes",[1],4
same,"Cell cycle: I, number of up-regulated genes",[1],0
same,Cell cycle: No. (regulated genes/genes of function),[1],4/163
same,ECM-receptor interaction: % of genes regulated,[1],28.4%
same,"ECM-receptor interaction: D, number of down-regulated genes",[1],18
same,"ECM-receptor interaction: I, number of up-regulated genes",[1],3
same,ECM-receptor interaction: No. (regulated genes/genes of pathway),[1],21/74
same,Insulin signaling pathway: % of genes regulated,[1],9.8%
same,"Insulin signaling pathway: D, number of down-regulated genes",[1],7
same,"Insulin signaling pathway: I, number of up-regulated genes",[1],3
same,Insulin signaling pathway: No. (regulated genes/genes of pathway),[1],10/102
same,JAK-STAT signaling pathway: % of genes regulated,[1],27.9%
same,"JAK-STAT signaling pathway: D, number of down-regulated genes",[1],30
same,"JAK-STAT signaling pathway: I, number of up-regulated genes",[1],9
same,JAK-STAT signaling pathway: No. (regulated genes/genes of pathway),[1],39/140
same,Lipid metabolism: % of genes regulated,[1],16.5%
same,"Lipid metabolism: D, number of down-regulated genes",[1],15
same,"Lipid metabolism: I, number of up-regulated genes",[1],3
same,Lipid metabolism: No. (regulated genes/genes of function),[1],18/109
same,MAPK signaling: % of genes regulated,[1],10.6%
same,"MAPK signaling: D, number of down-regulated genes",[1],17
same,"MAPK signaling: I, number of up-regulated genes",[1],7
same,MAPK signaling: No. (regulated genes/genes of pathway),[1],24/227
same,PPAR signaling pathway: % of genes regulated,[1],37.8%
same,"PPAR signaling pathway: D, number of down-regulated genes",[1],14
same,"PPAR signaling pathway: I, number of up-regulated genes",[1],14
same,PPAR signaling pathway: No. (regulated genes/genes of pathway),[1],28/74
same,TGF-β signaling pathway: % of genes regulated,[1],11.1%
same,"TGF-β signaling pathway: D, number of down-regulated genes",[1],2
same,"TGF-β signaling pathway: I, number of up-regulated genes",[1],3
same,TGF-β signaling pathway: No. (regulated genes/genes of pathway),[1],5/45
same,VEGF signaling pathway: % of genes regulated,[1],6.5%
same,"VEGF signaling pathway: D, number of down-regulated genes",[1],0
same,"VEGF signaling pathway: I, number of up-regulated genes",[1],2
same,VEGF signaling pathway: No. (regulated genes/genes of pathway),[1],2/31
same,Wnt signaling pathway: % of genes regulated,[1],10.6%
same,"Wnt signaling pathway: D, number of down-regulated genes",[1],5
same,"Wnt signaling pathway: I, number of up-regulated genes",[1],2
same,Wnt signaling pathway: No. (regulated genes/genes of pathway),[1],7/66
same,focal adhesion: % of genes regulated,[1],11%
same,"focal adhesion: D, number of down-regulated genes",[1],16
same,"focal adhesion: I, number of up-regulated genes",[1],3
same,focal adhesion: No. (regulated genes/genes of function),[1],19/173
same,tight junction: % of genes regulated,[1],13.6%
same,"tight junction: D, number of down-regulated genes",[1],7
same,"tight junction: I, number of up-regulated genes",[1],2
same,tight junction: No. (regulated genes/genes of function),[1],9/66
same,Amino acid metabolism: % of genes regulated,BP40 medium (about 40 μg BP/ml),8.7%

# From patent US20150056702A1, “METHOD AND KIT FOR CULTURING STEM CELLS” (China Medical University, priority 2013, published 2015)
